Measured values published in article PMC11019538, “Biophysics-Guided Lead Discovery of HBV Capsid Assembly Modifiers” (ACS Infectious Diseases, 2024).
Like-named read-outs stand apart in the source and are kept apart here.

Tests used:
[1] = MTT cytotoxicity, Vero cells; assay type: cell-based, African green monkey; conditions: African green monkey, Vero cells (kidney)
Description: (§1) Human peripheral blood mononuclear (PBM), T lymphoblast CEM-CCRF (herein referred to as CEM cells), African green monkey kidney (Vero), or human liver carcinoma (HepG2) cells were tested via MTT assay using the CellTiter 96 Non-Radioactive Cell Proliferation (Promega) kit as previously described.[63]

[2] = system: African green monkey kidney (Vero) cells; assay: MTT cytotoxicity, Vero cells; assay type: cell-based; conditions: Vero cells, 100 µM
Description: as §1

[3] = system: PBM, CEM, Vero and HepG2 cells; assay: MTT cytotoxicity, four cell lines taken together; assay type: cell-based
Description: as §1

[4] = MTS cytotoxicity (Table S4)
[5] = system: T lymphoblast CEM-CCRF (CEM) cells; assay: MTT cytotoxicity, CEM cells; assay type: cell-based, human; conditions: 100 µM
Description: as §1

[6] = MTT cytotoxicity, CEM cells; assay type: cell-based, human; conditions: human, T lymphoblast CEM-CCRF (CEM) cells
Description: as §1

Cp149 capsid assembly = biological target: T1, Cp149 capsid assembly (Hepatitis B virus genotype D subtype adw, UniProt P03147); assay: Transmission electron microscopy of assembled Cp149 products; assay type: biochemical; conditions: for effect on capsid morphology (TEM) / % abnormal capsids, Trial 1 / % abnormal capsids, Trial 2: 20 μM Cp149, 40 μM compound; for % abnormal capsids, Trial 1 / % abnormal capsids, Trial 2: 500 mM NaCl; for % abnormal capsids, Average: average of two trials
T1 construct: The N-terminal domain of Cp (Cp149) is sufficient for forming regular capsids; made in house; host or cells: E. coli BL21(DE3)
T1 sequence (P03147 1-149): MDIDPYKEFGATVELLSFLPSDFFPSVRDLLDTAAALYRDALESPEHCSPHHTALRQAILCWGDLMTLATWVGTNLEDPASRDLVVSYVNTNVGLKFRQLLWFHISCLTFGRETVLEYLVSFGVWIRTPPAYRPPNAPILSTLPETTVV
Description: The assembled samples of Cp149 were prepared as described in the Size Exclusion Chromatography section. Eight μL of each sample was added onto the 300 mesh Lacey Formvar carbon–copper grids (Ted Pella, Inc.) and allowed to sit for 1.5 min. The grid was then rinsed in 500 mL of deionized water for 10 s twice to rinse off the extra buffer on the grid. After drying, the sample was stained with 8 μL of 2% uranyl acetate for 1 min. After removal and drying of the uranyl acetate solution, the sample was imaged with a Hitachi HT7700 electron microscope at an accelerating voltage of 120 kV, at the IMat Materials Characterization Facility of Georgia Institute of Technology. The images underwent processing using ImageJ software. Initially, to minimize noise, a Gaussian blur filter was applied. These images were then converted into an 8 bit binary format for edge detection. ImageJ identified particles ranging in size from 800 to 2000 pixels. An example of a processed image can be seen in Figure S14. The circularity of each particle was calculated using the formula circularity = 4π × area × perimeter^–2. […] A total of four images, each containing a minimum of 100 capsids, were analyzed to determine the proportion of the abnormal capsids. The entire experiment was duplicated, and the outcomes from both sets were then averaged.

[7] = system: HBV DNA replication in HepAD38 cells; assay: HBV DNA replication inhibition assay in HepAD38 cells (7 days, PCR of supernatant DNA); assay type: cell-based, hepatitis B virus; conditions: Hepatitis B virus; for inhibition at 200 µM: read-out: Anti-HBV activity in HepAD38 cells, % Inh. at 200 µM ± SD
Description: HepAD38 cells were seeded at 50,000 cells/well in collagen-coated 96-well plates. […] The experiment lasted 7 days. On day 7, total DNA was purified from the supernatant using a commercially available kit (DNeasy 96 Blood & Tissue kit, Qiagen). The HBV DNA was amplified in a polymerase chain reaction assay using LightCycler 480 II (Roche), as previously described.[63] All samples were tested in duplicate.

[8] = MTT cytotoxicity, HepG2 cells; assay type: cell-based, human; conditions: human, HepG2 cells (liver carcinoma)
Description: as §1

Cp149 = biological target: T2, Cp149 (Hepatitis B virus genotype D subtype adw, UniProt P03147); assay: Tryptophan fluorescence titration; assay type: binding; conditions: for tryptophan fluorescence quenching: 20 μM Cp149, compound up to 100 μM
T2 construct: The N-terminal domain of Cp (Cp149) is sufficient for forming regular capsids; made in house; host or cells: E. coli BL21(DE3)
T2 sequence (P03147 1-149): as above
Description: Each of the compounds was titrated into 100 μL of the protein solution to final concentrations of 0, 5, 10, 20, 50, and 100 μM in a clear bottom 96-well plate. […] Tryptophan fluorescence levels were measured by exciting the samples at 285 nm and measuring the emission at 340 nm with the Varioskan Flash (Thermo Fisher) plate reader. […] Fluorescence quenching was calculated by taking the difference of net fluorescence levels of each concentration and of the 0 μM sample. All the samples were run in triplicate, and the results were averaged. The dissociation constants (KD) were fitted by the one-site-specific binding model of GraphPad.[45]

[9] = MTT cytotoxicity, PBM cells; assay type: cell-based, human; conditions: human, peripheral blood mononuclear (PBM) cells
Description: as §1

[10] = system: human peripheral blood mononuclear (PBM) cells; assay: MTT cytotoxicity, PBM cells; assay type: cell-based; conditions: 100 µM
Description: as §1

[11] = system: human liver carcinoma (HepG2) cells; assay: MTT cytotoxicity, HepG2 cells; assay type: cell-based; conditions: HepG2 cells, 100 µM
Description: as §1

[12] = HePAD38, additional testing, Table S4
[13] = HePAD38, additional testing, Table S4, read-out: Anti-HBV activity in HepAD38 cells, EC50
[14] = HepAD38 cells, 10 μM, trial 1, read-out: % HBV DNA Inh. at 10 μM, trial 1
[15] = HepAD38 cells, 10 μM, trial 2, read-out: % HBV DNA Inh. at 10 μM, trial 2
[16] = HepAD38 cells, 10 µM, trial 3, read-out: % HBV DNA Inh. at 10 µM, trial 3
[17] = HepAD38 cells, 10 µM, trial 4, read-out: % HBV DNA Inh. at 10 µM, trial 4
[18] = HepAD38 cells, 10 μM, read-out: % inhibition in at least one of the trials
[19] = HepAD38 cells, trial 1, read-out: EC50, trial 1
[20] = HepAD38 cells, trial 2, read-out: EC50, trial 2
[21] = HepAD38 cells, trial 3, read-out: EC50, trial 3
[22] = HepAD38 cells, trial 4, read-out: EC50, trial 4

## Cc1ccc2[nH]c(CCNc3nccc(-c4ccccn4)n3)nc2c1C [GT-47]
[1]
  CC50: > 100 µM
[2]
  % cytotoxicity (MTT) at 100 µM: 31%
[3]
  toxicity in at least one cell line tested: 16 to 18 µM
[4]
  MTS cytotoxicity, % Inh. at 200 µM: < 1%
[5]
  % cytotoxicity at 100 µM (MTT), CEM cells: 48%
[6]
  CC50: > 100 µM
Cp149 capsid assembly
  effect on capsid morphology (TEM): induced misdirected products
  % abnormal capsids, Trial 1: 28%
  % abnormal capsids, Trial 2: 23%
  % abnormal capsids, Average: 26%
[7]; [12]
  inhibition at 200 µM: < 1%
[7]; [13]
  EC50: > 200 µM
[7]; [14]
  inhibition at 10 µM: 49%
[7]; [15]
  inhibition at 10 µM: 49%
[7]; [16]
  inhibition at 10 µM: 14%
[7]; [17]
  inhibition at 10 µM: < 1%
[7]; [18]
  inhibition at 10 µM: > 50%
[7]; [19]
  EC50: ≥ 10 µM
[7]; [20]
  EC50: ≥ 10 µM
[7]; [21]
  EC50: > 10 µM
[7]; [22]
  EC50: > 100 µM
[8]
  CC50: 18 µM
In vitro
  IC50: > 200 µM
Cp149
  tryptophan fluorescence quenching: reproducible but modest fluorescence quenching
[9]
  CC50: > 100 µM
[10]
  percent cytotoxicity (cell growth inhibition) at 100 µM: 16%

## NCCCC(=O)NCc1nc(-c2cccc(F)c2)c(-c2ccccn2)[nH]1 [GT-45]
[1]
  CC50: 66 µM
[5]
  % cytotoxicity at 100 µM (MTT), CEM cells: 36%
[6]
  CC50: > 100 µM
Cp149 capsid assembly
  effect on capsid morphology (TEM): induced misdirected products
  % abnormal capsids, Trial 1: 40%
  % abnormal capsids, Trial 2: 35%
  % abnormal capsids, Average: 38%
[7]; [14]
  inhibition at 10 µM: 50%
[7]; [15]
  inhibition at 10 µM: 49%
[7]; [16]
  inhibition at 10 µM: < 1%
[7]; [17]
  inhibition at 10 µM: < 1%
[7]; [18]
  inhibition at 10 µM: > 50%
[7]; [19]
  EC50: ≥ 10 µM
[7]; [20]
  EC50: ≥ 10 µM
[7]; [21]
  EC50: > 10 µM
[7]; [22]
  EC50: > 100 µM
[8]
  CC50: > 100 µM
[11]
  percent cytotoxicity (MTT) at 100 µM, HepG2: 41%
Cp149
  tryptophan fluorescence quenching: reproducible but modest fluorescence quenching
[9]
  CC50: > 100 µM
[10]
  percent cytotoxicity (cell growth inhibition) at 100 µM: 41%

## Cc1nc(-c2c(-c3ccccc3)ncn2Cc2cccc3[nH]ccc23)c[nH]1 [GT-40]
[1]
  CC50: > 100 µM
[2]
  % cytotoxicity (MTT) at 100 µM: 39%
[6]
  CC50: 77 µM
Cp149 capsid assembly
  effect on capsid morphology (TEM): no apparent effect
  % abnormal capsids, Trial 1: 8%
  % abnormal capsids, Trial 2: 11%
  % abnormal capsids, Average: 10%
[7]; [14]
  inhibition at 10 µM: 55%
[7]; [15]
  inhibition at 10 µM: 50%
[7]; [16]
  inhibition at 10 µM: < 1%
[7]; [17]
  inhibition at 10 µM: < 1%
[7]; [18]
  inhibition at 10 µM: > 50%
[7]; [19]
  EC50: < 10 µM
[7]; [20]
  EC50: 10 µM
[7]; [21]
  EC50: > 10 µM
[7]; [22]
  EC50: > 100 µM
[8]
  CC50: > 100 µM
[11]
  percent cytotoxicity (MTT) at 100 µM, HepG2: 30%
Cp149
  tryptophan fluorescence quenching: No fluorescence quenching was observed
Cp149; one site specific binding model, Table S7
  KD: No binding
[9]
  CC50: > 100 µM
[10]
  percent cytotoxicity (cell growth inhibition) at 100 µM: 19%

## O=C(NCc1ccc(-c2cccnc2)nc1)c1ccc2nccnc2c1 [GT-46]
[1]
  CC50: 53 µM
[4]
  MTS cytotoxicity, % Inh. at 200 µM: < 1%
[6]
  CC50: 38 µM
Cp149 capsid assembly
  % abnormal capsids, Trial 2: 78%
  % abnormal capsids, Average: 74%
[7]; [12]
  inhibition at 200 µM: 25.6 ± 2.5%
[7]; [13]
  EC50: > 200 µM
[7]; [14]
  inhibition at 10 µM: 49%
[7]; [15]
  inhibition at 10 µM: 49%
[7]; [16]
  inhibition at 10 µM: 2%
[7]; [17]
  inhibition at 10 µM: 39%
[7]; [18]
  inhibition at 10 µM: > 50%
[7]; [19]
  EC50: ≥ 10 µM
[7]; [20]
  EC50: ≥ 10 µM
[7]; [21]
  EC50: > 10 µM
[7]; [22]
  EC50: > 100 µM
[8]
  CC50: 82 µM
In vitro
  IC50: > 200 µM
Cp149
  tryptophan fluorescence quenching: moderate fluorescence quenching
Cp149; KD, one site specific binding model, Table S7
  Kd: 263 µM
Cp149; dissociation constant (KD), estimated, 20 μM Cp149, single-site fit
  Kd: 263 µM
[9]
  CC50: > 100 µM
[10]
  percent cytotoxicity (cell growth inhibition) at 100 µM: 20%

## CCn1ccnc1-c1c(-c2ccccc2)ncn1CCCc1cccnc1 [GT-39]
[1]
  CC50: > 100 µM
[2]
  % cytotoxicity (MTT) at 100 µM: 47%
[3]
  toxicity in at least one cell line tested: 16 to 18 µM
[4]
  MTS cytotoxicity, % Inh. at 200 µM: < 1%
[6]
  CC50: 16 µM
Cp149 capsid assembly
  effect on capsid morphology (TEM): induced misdirected products
  % abnormal capsids, Trial 1: 45%
  % abnormal capsids, Trial 2: 36%
[7]; [12]
  inhibition at 200 µM: 39.1 ± 1.5%
[7]; [13]
  EC50: > 200 µM
[7]; [14]
  inhibition at 10 µM: 57%
[7]; [15]
  inhibition at 10 µM: 50%
[7]; [16]
  inhibition at 10 µM: < 1%
[7]; [17]
  inhibition at 10 µM: 36%
[7]; [18]
  inhibition at 10 µM: > 50%
[7]; [19]
  EC50: < 10 µM
[7]; [20]
  EC50: 10 µM
[7]; [21]
  EC50: > 10 µM
[7]; [22]
  EC50: > 100 µM
[8]
  CC50: > 100 µM
[11]
  percent cytotoxicity (MTT) at 100 µM, HepG2: 32%
In vitro
  IC50: > 200 µM
Cp149
  tryptophan fluorescence quenching: reproducible but modest fluorescence quenching
[9]
  CC50: > 100 µM
[10]
  percent cytotoxicity (cell growth inhibition) at 100 µM: 22%
